The results in this text go back to ChEMBL document CHEMBL3098072 (Bioorg Med Chem, 2014).

Each structure is given as a SMILES string. Values after ≈ are worked out from the molar mass of the structure shown. Active and inactive are the calls of the source. No cut-off for these calls is given here.

Data set [1] has as its system Mycobacterium tuberculosis. Nature of the data set: microbe, parasite or virus in culture. The note with it: H37Rv, 96 h.
Data set [2] addresses T1, Inorganic pyrophosphatase (Mycobacterium tuberculosis (strain ATCC 25618 / H37Rv)) (UniProt P9WI55).
T1 sequence (whole entry): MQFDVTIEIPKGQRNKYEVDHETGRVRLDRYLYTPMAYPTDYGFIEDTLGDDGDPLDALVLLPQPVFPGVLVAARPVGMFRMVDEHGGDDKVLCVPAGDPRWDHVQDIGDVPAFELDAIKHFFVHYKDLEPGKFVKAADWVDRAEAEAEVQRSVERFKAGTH
Nature of the data set: Inhibition of Mycobacterium tuberculosis PPase at 100 uM using inorganic pyrophosphate as substrate preincubated for 2 mins followed by substrate addition measured after 6 mins by malachite green assay.

In data set [3] the target is T2, Inorganic pyrophosphatase (Mycobacterium tuberculosis (strain ATCC 25618 / H37Rv), UniProt P9WI55).
T2 sequence (P9WI55 whole entry): T1 sequence (whole entry)
Nature of the data set: Inhibition of Mycobacterium tuberculosis PPase using inorganic pyrophosphate as substrate preincubated for 2 mins followed by substrate addition measured after 6 mins by malachite green assay.

Another data set relates to Bacillus subtilis. Nature of the data set: microbe, parasite or virus in culture. The note with it: 20 h.
The test system of a further data set is Bacillus anthracis. Nature of the data set: microbe, parasite or virus in culture. The note with it: Sterne 34F2, 20 h.
Data set [4] is described as follows: Cytotoxicity against mouse J774A1 cells at 64 uM after 2 hrs by MTS assay relative to control. Format: cell-based. The following applies: j774.a1, 2 h. For orientation: Formazan colour is commonly taken as a measure of viable cells.
Another data set concerns HeLa. Nature of the data set: Cytotoxicity against human HeLa cells at 64 uM after 2 hrs by MTS assay relative to control. In kind it is cell-based.
Data set [5] is described as follows: Solubility of the compound in DMSO. In kind it is physicochemical.
The subject of another data set is Staphylococcus aureus. Description: microbe, parasite or virus in culture. The note with it: 20 h.

For the molecule `COc1ccc(C2CCN(c3nncc(-c4ccc(C)o4)n3)C2)cc1O` (stereo not drawn), the MIC in data set [1] was more than 128 µM. Moreover, in [2], the inhibition (commonly the share of the control response that was lost under treatment) stood at 5%.
For `Cc1ccc(-c2cnnc(N3CCC(n4cnc5c(N)ncnc54)C3)n2)o1` (stereo not drawn) the same measures were more than 128 µM and “inactive”.
Regarding `NNC(=O)c1ccncc1` [ISONIAZID], in [1], the MIC was 0.45 µM (≈ 0.0617 µg/mL).
In [1], `O=[N+]([O-])c1cccc(-c2cnnc(N3CCC(c4cccc(Cl)c4)C3)n2)c1` (stereo not drawn) returned an MIC of more than 128 µM. For the same molecule, the IC50 – broadly, the concentration at which inhibition is half-maximal – in [3] worked out at 118 µM. The inhibition in [2] was determined as 39.4%.
Regarding `Cc1ccc(-c2cnnc(N3CCC(c4ccccc4)C3)n2)o1` (stereo not drawn), in data set [1], the MIC worked out at 40.5 µM (≈ 12.4 µg/mL). The inhibition in data set [2] worked out at 19.7%.
On to `Cc1ccc(-c2cnnc(N3CCC(c4cccc(Cl)c4)C3)n2)o1` (stereo not drawn), for which the MIC in data set [1] amounted to 61 µM (≈ 20.8 µg/mL). In data set [3], this molecule returned an IC50 of 148 µM. The molecule further displayed an inhibition in [2] of 45.6%.
For `Cc1ccc(-c2cnnc(N3CCC(c4cccc(OCc5ccccc5)c4)C3)n2)o1` (stereo not drawn), the IC50 in [3] was found to be 63.2 µM. The molecule further yielded an inhibition in [2] of 73.2%.
On to `CN[C@H](CC(C)C)C(=O)N[C@H]1C(=O)N[C@@H](CC(N)=O)C(=O)N[C@H]2C(=O)N[C@H]3C(=O)N[C@H](C(=O)N[C@H](C(=O)O)c4cc(O)cc(O)c4-c4cc3ccc4O)[C@H](O)c3ccc(c(Cl)c3)Oc3cc2cc(c3O[C@@H]2O[C@H](CO)[C@@H](O)[C@H](O)[C@H]2O[C@H]2C[C@](C)(N)[C@H](O)[C@H](C)O2)Oc2ccc(cc2Cl)[C@H]1O` [VANCOMYCIN], for which the MBC against Bacillus subtilis and in the data set on Bacillus anthracis was less than 1 µM throughout. For the same molecule, the MIC with Bacillus subtilis and against Bacillus anthracis was less than 1 µM throughout.
As to `Clc1cccc(C2CCN(c3nncc(-c4ccccc4)n3)C2)c1` (stereo not drawn), the Activity result (in data set [4]; in the data set with HeLa) was “Non-toxic” throughout.
Take `Nc1cccc(-c2cnnc(N3CCC(c4cccc(Cl)c4)C3)n2)c1` (stereo not drawn): the Activity entry (in data set [4]; in the data set on HeLa) was “Non-toxic” in each case.
As for `O=[N+]([O-])c1cccc(-c2ccc(-c3cnnc(N4CCC(c5cccc(Cl)c5)C4)n3)o2)c1` (stereo not drawn), in data set [1], the MIC was more than 16 µM. Also, in [5], the solubility (commonly the dissolved amount per volume that the medium holds) is less than 100 µM.
Consider `Cc1ccc(-c2cnnc(N3CCC(c4cccc(O)c4)C3)n2)o1` (stereo not drawn), for which the MIC in data set [1] was 60.3 µM (≈ 19.4 µg/mL); with Bacillus subtilis it was 128 µM (≈ 41.3 µg/mL); with Bacillus anthracis it was 64 µM (≈ 20.6 µg/mL); in the data set with Staphylococcus aureus it was more than 50 µM. Besides, the Activity entry (in data set [4]; in the data set on HeLa) was “Non-toxic” throughout. Besides, the MBC against Bacillus anthracis was found to be 128 µM (≈ 41.3 µg/mL). Further, the inhibition result in [2] was “inactive”.
As to `O=[N+]([O-])c1cccc(-c2ccc(-c3cnnc(N4CCC(c5cccc(Cl)c5)C4)n3)cc2)c1` (stereo not drawn), the MIC in data set [1] was more than 128 µM. Besides, the inhibition entry in data set [2] is “inactive”.
Regarding `COc1ccc(-c2cnnc(N3CCC(c4cccc(Cl)c4)C3)n2)cc1OC` (stereo not drawn), the Activity result (in data set [4]; in the data set on HeLa) was “Non-toxic” in each case.
In turn, `Cc1ccc(-c2cnnc(N3CCC(c4cccc(N)c4)C3)n2)o1` (stereo not drawn) gave an MIC in data set [1] of 70.1 µM (≈ 22.5 µg/mL). The molecule further registered an inhibition in data set [2] of 33.4%.
For `COC(=O)c1cccc(-c2ccc(-c3cnnc(N4CCC(c5cccc(Cl)c5)C4)n3)o2)c1` (stereo not drawn), the MIC in data set [1] is more than 16 µM. The solubility in data set [5] is less than 100 µM.
With `CO[C@H]1/C=C/O[C@@]2(C)Oc3c(C)c(O)c4c(O)c(c(/C=N/N5CCN(C)CC5)c(O)c4c3C2=O)NC(=O)/C(C)=C\C=C\[C@H](C)[C@H](O)[C@@H](C)[C@@H](O)[C@@H](C)[C@H](OC(C)=O)[C@@H]1C` [RIFAMPIN], the MIC in [1] is 0.08 µM (≈ 0.0658 µg/mL).
Molecule `Cc1ccc(-c2cnnc(N3CCC(c4cccc(F)c4)C3)n2)o1` (stereo not drawn) came in with an MIC in [1] of 38.9 µM (≈ 12.6 µg/mL). Moreover, the inhibition in data set [2] was 21.3%.
For `Clc1cccc(C2CCN(c3nncc(-c4ccc(Br)cc4)n3)C2)c1` (stereo not drawn), in data set [1], the MIC is 30.7 µM (≈ 12.8 µg/mL). In [3], this molecule displayed an IC50 of 33.3 µM. In addition, the inhibition in data set [2] is 53%.
Consider `Cc1ccc(-c2cnnc(N3CCC(c4cccc(C#N)c4)C3)n2)o1` (stereo not drawn), for which the MIC in [1] was determined as 64.4 µM (≈ 21.3 µg/mL). Also, in data set [2], the inhibition is 10.3%.
Regarding `Nc1ccc(-c2cnnc(N3CCC(c4cccc(Cl)c4)C3)n2)cc1` (stereo not drawn), the MIC stood at 5.7 µM (≈ 2.01 µg/mL) in data set [1] and 16 µM (≈ 5.63 µg/mL) in the data set with Bacillus anthracis. For the same molecule, the Activity entry (in data set [4]; with HeLa) was “Non-toxic” each time. The molecule also returned an MBC in the data set on Bacillus anthracis of 128 µM (≈ 45 µg/mL).
In data set [1], `Cc1ccc(-c2cnnc(N3CCC(c4cccc(C(F)(F)F)c4)C3)n2)o1` (stereo not drawn) registered an MIC of 52.4 µM (≈ 19.6 µg/mL). Also, in [3], the midpoint of inhibition, the IC50, lay at 355 µM. Moreover, the inhibition in [2] was found to be 37.8%.
For the molecule `Cc1ccc(-c2cnnc(N3CCC(c4cccc([N+](=O)[O-])c4)C3)n2)o1` (stereo not drawn), the MIC in [1] was more than 16 µM. The molecule also displayed a solubility in data set [5] of less than 100 µM.
`Cc1ccc(-c2cnnc(N3CCC(c4ccc(O)c(O)c4)C3)n2)o1` (stereo not drawn) yielded an MIC in data set [1] of more than 128 µM. The inhibition entry in data set [2] was “inactive”.
With `Clc1cccc(C2CCN(c3nncc(-c4ccc5c(c4)OCO5)n3)C2)c1` (stereo not drawn), the MIC in [1] was more than 16 µM. In addition, in data set [5], the solubility was less than 100 µM.
For `FC(F)(F)c1ccccc1-c1ccc(-c2cnnc(N3CCC(c4cccc(Cl)c4)C3)n2)o1` (stereo not drawn), the MIC in [1] was more than 128 µM. In data set [3], half-maximal inhibition (IC50) was put at 38.3 µM. Moreover, the inhibition in [2] came out at 67.7%.
Take `O=[N+]([O-])c1ccc(-c2cnnc(N3CCC(c4cccc(Cl)c4)C3)n2)cc1` (stereo not drawn): the MIC in data set [1] was 31.2 µM (≈ 11.9 µg/mL). In data set [2], this molecule had an inhibition of 30.3%.
